# Measurements: patent US8921382B2, “Thiazolo[5,4-d] pyrimidines and their use as agrochemicals” (Dow AgroSciences, LLC., priority 2010, dated 2014)
# Legend:
# Format in all cases: in vivo
# Septoria tritici = assay: Septoria Blotch of Wheat foliar spray test, inoculated one day after treatment; settings: Zymoseptoria tritici, wheat plants, read-out: Activity against Fungal Diseases SEPTTR (percent disease control); for pest or weed control at 200 ppm: applied to foliage at 200 ppm; for pest or weed control at 25 ppm: Tested at 25 ppm
# Method: (§1) Fungicide activity data are the level (in percent) at which the given disease was controlled when the given compound was applied to the foliage of the plants at 200 ppm. In a few cases (noted in the table) the compound was applied to the plants at 25 ppm or 3 ppm. The plants were inoculated with the fungus one day after treatment. ***=80-100% control; **=50-79% control; *=0-49% control. […] The activity of the compounds as effective fungicides was determined by applying the compounds to plants and observing control of fungal disease. […] All plants were inoculated with spores of the fungus the day after treatment, then incubated in an environment conducive to disease development. Disease severity was evaluated 4 to 25 days (d) later, depending on the speed of disease development. The following experiments were performed in the laboratory to determine the fungicidal efficacy of the compounds of the invention. […] Each pot contained 3-10 seedlings. These plants were sprayed until wet with the formulated test compound. On the following day, the leaves were inoculated with an aqueous spore suspension of Septoria tritici and the plants were kept in high humidity (one day in a dark dew chamber followed by two days in a lighted dew chamber) to permit spores to germinate and infect the leaf. The plants were then transferred to a greenhouse until disease developed on untreated control plants. […] The effectiveness of the test compounds at controlling disease when sprayed on leaves was determined by assessing the severity of disease on treated plants, then converting the severity to percent control based on the level of disease on untreated, inoculated plants.
# [1] = system: Puccinia recondita tritici; assay: Leaf Rust of Wheat foliar spray test, inoculated one day after treatment; settings: wheat plants, read-out: Activity against Fungal Diseases PUCCRT (percent disease control); for pest or weed control at 200 ppm: applied to foliage at 200 ppm; for pest or weed control at 3 ppm: Tested at 3 ppm
# Method: as §1, with “3-8” for “3-10”, “compounds.” for “compound.”, “Puccinia recondita” for “Septoria”, “overnight” for “(one day in a dark dew chamber followed by two days in a lighted dew chamber)”
# Pyricularia oryzae = assay: whole plant or invertebrate; settings: foliar, read-out: Activity against Fungal Diseases PYRIOR (percent disease control)
Structure (SMILES),pest or weed control at 200 ppm (Septoria tritici) [%],pest or weed control at 200 ppm [1] [%],pest or weed control at 25 ppm (Septoria tritici) [%],pest or weed control at 3 ppm [1] [%],pest or weed control at 200 ppm (Pyricularia oryzae) [%]
"COc1ccc(CCNc2ncnc3scnc23)c(C)c1 [Compound 56, [2-(4-methoxy-2-methylphenyl)-ethyl]-thiazolo[5,4-d]pyrimidin-7-ylamine]",50 to 79,0 to 49,–,–,–
"FC(F)(F)c1ccc(Oc2ccc(CCNc3ncnc4scnc34)cc2)nc1 [Compound 50, thiazolo[5,4-d]pyrimidin-7-yl-{2-[4-(5-trifluoromethylpyridin-2-yloxy)-phenyl]-ethyl}-amine]",–,–,80 to 100,80 to 100,–
"Cc1cc(O)ccc1CCNc1ncnc2scnc12 [Compound 57, 3-methyl-4-[2-(thiazolo[5,4-d]pyrimidin-7-ylamino)-ethyl]-phenol]",0 to 49,0 to 49,–,–,–
"Oc1ccc(CCNc2ncnc3scnc23)cc1 [Compound 3, 4-[2-(thiazolo[5,4-d]pyrimidin-7-ylamino)-ethyl]-phenol]",–,0 to 49,0 to 49,–,0 to 49
"Cc1cc(CCNc2ncnc3scnc23)ccc1Oc1ccncc1C(F)(F)F [Compound 47, {2-[3-methyl-4-(3-trifluoromethylpyridin-4-yloxy)-phenyl]-ethyl}-thiazolo[5,4-d]pyrimidin-7-ylamine]",80 to 100,80 to 100,–,–,80 to 100
"CC(Cc1ccc(Oc2c(F)cnc(C(F)(F)F)c2F)cc1)Nc1ncnc2scnc12 (stereo not shown) [Compound 14, {2-[4-(3,5-Difluoro-2-trifluoromethylpyridin-4-yloxy)-phenyl]-1-methyl-ethyl}-thiazolo[5,4-d]pyrimidin-7-ylamine]",–,–,80 to 100,0 to 49,–
"Fc1nc(F)c(F)c(Oc2ccc(CCNc3ncnc4scnc34)cc2)c1F [Compound 5, {2-[4-(2,3,5,6-tetrafluoropyridin-4-yloxy)-phenyl]-ethyl}-thiazolo[5,4-d]pyrimidin-7-ylamine]",–,–,0 to 49,80 to 100,–
"COc1cc(CCNc2ncnc3scnc23)ccc1Oc1cc(C(F)(F)F)ccn1 [Compound 17, {2-[3-methoxy-4-(4-trifluoromethylpyridin-2-yloxy)-phenyl]-ethyl}-thiazolo[5,4-d]pyrimidin-7-ylamine]",–,–,80 to 100,80 to 100,–
"COc1ccc(CCNc2ncnc3scnc23)cc1C [Compound 19, [2-(4-methoxy-3-methylphenyl)-ethyl]-thiazolo[5,4-d]pyrimidin-7-ylamine]",50 to 79,80 to 100,–,–,–
"COc1ccc(CCNc2ncnc3scnc23)c(F)c1 [Compound 55, [2-(2-fluoro-4-methoxyphenyl)-ethyl]-thiazolo[5,4-d]pyrimidin-7-ylamine]",0 to 49,80 to 100,–,–,–
"COc1cc(CCNc2ncnc3scnc23)ccc1Oc1c(Cl)cnc(C(F)(F)F)c1Cl [Compound 48, {2-[4-(3,5-dichloro-2-trifluoromethylpyridin-4-yloxy)-3-methoxyphenyl]-ethyl}-thiazolo[5,4-d]pyrimidin-7-ylamine]",80 to 100,80 to 100,–,–,80 to 100
"FC(F)(F)COc1ccc(CCNc2ncnc3scnc23)cn1 [Compound 4, thiazolo[5,4-d]pyrimidin-7-yl-{2-[6-(2,2,2-trifluoroethoxy)-pyridin-3-yl]-ethyl}-amine]",–,80 to 100,0 to 49,–,80 to 100
"N#Cc1ccnc(Oc2ccc(CCNc3ncnc4scnc34)cc2)c1 [Compound 2, 2-{4-[2-(thiazolo[5,4-d]pyrimidin-7-ylamino)-ethyl]-phenoxy}-isonicotinonitrile]",–,80 to 100,50 to 79,–,80 to 100
"Cc1cc(CCNc2ncnc3scnc23)ccc1O [Compound 20, 2-methyl-4-[2-(thiazolo[5,4-d]pyrimidin-7-ylamino)-ethyl]-phenol]",0 to 49,0 to 49,–,–,–
"COc1ccc(C(C)Nc2ncnc3scnc23)cc1 (stereo not shown) [Compound 1, [1-(4-Methoxyphenyl)-ethyl]-thiazolo[5,4-d]pyrimidin-7-yl-amine]",–,80 to 100,–,–,80 to 100
"Cc1cc(CCN(c2nc(C(F)(F)F)c(Cl)s2)c2ncnc3scnc23)ccc1Oc1nc(C(F)(F)F)c(Cl)s1 [Compound 45, (5-chloro-4-trifluoromethylthiazol-2-yl)-{2-[4-(5-chloro-4-trifluoromethylthiazol-2-yloxy)-3-methylphenyl]-ethyl}-thiazolo[5,4-d]pyrimidin-7-ylamine]",–,–,0 to 49,0 to 49,–
"Fc1cc(Oc2cc(C(F)(F)F)ccn2)ccc1CCNc1ncnc2scnc12 [Compound 60, {2-[2-fluoro-4-(4-trifluoromethylpyridin-2-yloxy)-phenyl]-ethyl}-thiazolo[5,4-d]pyrimidin-7-ylamine]",80 to 100,80 to 100,–,–,–
"Oc1ccc(CCNc2ncnc3scnc23)c(F)c1 [Compound 58, 3-fluoro-4-[2-(thiazolo[5,4-d]pyrimidin-7-ylamino)-ethyl]phenol]",0 to 49,0 to 49,–,–,–
"Fc1cc(Oc2cc(C(F)(F)F)ncn2)ccc1CCNc1ncnc2scnc12 [Compound 63, {2-[2-fluoro-4-(6-trifluoromethylpyrimidin-4-yloxy)-phenyl]-ethyl}-thiazolo[5,4-d]pyrimidin-7-ylamine]",80 to 100,80 to 100,–,–,–
"COc1cc(CCNc2ncnc3scnc23)ccc1Oc1cc(C(F)(F)F)ncn1 [Compound 54, {2-[3-methoxy-4-(6-trifluoromethylpyrimidin-4-yloxy)-phenyl]-ethyl}-thiazolo[5,4-d]pyrimidin-7-ylamine]",80 to 100,80 to 100,–,–,–
"COc1cc(CCNc2ncnc3scnc23)ccc1Oc1ccc(C(F)(F)F)cn1 [Compound 51, {2-[3-methoxy-4-(5-trifluoromethylpyridin-2-yloxy)-phenyl]-ethyl}-thiazolo[5,4-d]pyrimidin-7-ylamine]",–,–,80 to 100,80 to 100,–
"COc1cc(CCNc2ncnc3scnc23)ccc1Oc1cnccc1C(F)(F)F [Compound 29, {2-[3-methoxy-4-(4-trifluoromethylpyridin-3-yloxy)-phenyl]-ethyl}-thiazolo[5,4-d]pyrimidin-7-ylamine]",–,–,50 to 79,80 to 100,–
